Experimental data from ChEMBL document CHEMBL5532680, “Identification of a Sonically Activated Degrader of Methionine Adenosyltransferase 2A by an in Silico Approach Assisted with the Hole-Electron Analysis” (J Med Chem, 2024).
Calls of active or inactive are those of the source. The rule behind the calls is not given here.

Experiments:
[1] = target: T1, S-adenosylmethionine synthase isoform type-2 (Homo sapiens, UniProt P31153); experiment: Inhibition of recombinant human MAT2A expressed in baculovirus infected Sf9 cells at grated than 10 nM using L-methione as substrate preincubated for 15 mins followed by substrate addition and measured after 60 mins in presence of ATP by Kinase-Glo luminescent assay; conditions: time 75.0 min
Target sequence in this assay (P31153 whole entry, looked up, canonical isoform): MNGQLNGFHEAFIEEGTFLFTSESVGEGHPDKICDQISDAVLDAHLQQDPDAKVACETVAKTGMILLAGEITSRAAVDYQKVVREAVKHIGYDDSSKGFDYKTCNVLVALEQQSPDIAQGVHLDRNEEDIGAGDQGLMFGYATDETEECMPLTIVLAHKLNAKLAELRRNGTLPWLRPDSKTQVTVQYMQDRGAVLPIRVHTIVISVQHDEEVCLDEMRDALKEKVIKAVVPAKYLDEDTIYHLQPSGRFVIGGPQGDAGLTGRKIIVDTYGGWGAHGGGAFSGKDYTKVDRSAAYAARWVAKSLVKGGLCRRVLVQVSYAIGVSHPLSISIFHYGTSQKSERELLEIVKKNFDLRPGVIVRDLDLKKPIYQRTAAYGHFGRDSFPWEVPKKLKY

[2] = test system: HCT-116; experiment: Antiproliferative activity against wild type human HCT-116 cells preincubated with AG-270 followed by compound addition; format: functional, cell-based
[3] = target: T1, S-adenosylmethionine synthase isoform type-2; experiment: Induction of MAT2A degradation in human HCT-116 cells incubated for 4 hrs by Western blotting assay; format: cell-based
Target sequence in this assay (P31153 whole entry, looked up, canonical isoform): as above

[4] = target: T1, S-adenosylmethionine synthase isoform type-2; experiment: Induction of MAT2A degradation in human HCT-116 cells preincubated for 4 hrs followed by 1.0 MHz, 0.8W/cm2 ultrasound treatment for 0.5 mins by Western blotting assay; format: cell-based
Target sequence in this assay (P31153 whole entry, canonical isoform): as the sequence (P31153 whole entry, looked up, canonical isoform) above

[5] = target: T1, S-adenosylmethionine synthase isoform type-2; experiment: Induction of MAT2A degradation in human HCT-116 cells assessed as degradation maximum at higher than 1 uM preincubated for 4 hrs followed by 1.0 MHz, 0.8W/cm2 ultrasound treatment for 0.5 mins by Western blotting assay relative to control; format: cell-based; conditions: time 240.5 min
Target sequence in this assay (P31153 whole entry, looked up, canonical isoform): as above

[6] = target: T1, S-adenosylmethionine synthase isoform type-2; experiment: Induction of MAT2A degradation in human HCT-116 cells assessed as MAT2A level at 0.1 uM preincubated for 4 hrs followed by 1.0 MHz, 0.8W/cm2 ultrasound treatment for 4 mins by Western blotting assay; format: cell-based; conditions: time 244.0 min
Target sequence in this assay (P31153 whole entry, looked up, canonical isoform): as above

[7] = target: T1, S-adenosylmethionine synthase isoform type-2; experiment: Induction of MAT2A degradation in human HCT-116 cells assessed as MAT2A level at 0.1 uM preincubated for 4 hrs followed by 1.0 MHz, 0.8W/cm2 ultrasound treatment for 4 mins and measured upto 24 hrs by Western blotting assay; format: cell-based; conditions: time <= 1684.0 min
Target sequence in this assay (P31153 whole entry, looked up, canonical isoform): as above

[8] = test system: HCT-116; experiment: Antiproliferative activity against MTAP knocked out human HCT-116 cells under 4 mins sonication; format: functional, cell-based; conditions: HCT-116, 4 min
[9] = Half-life in ICR mouse at 1 mg/kg, iv measured upto 24 hrs by LC-MS/MS analysis; format: ADME, organism-based; conditions: in vivo
[10] = AUC in ICR mouse at 10 mg/kg, po measured upto 24 hrs by LC-MS/MS analysis; format: ADME, organism-based; conditions: in vivo
[11] = Volume of distribution at steady state in ICR mouse at 1 mg/kg, iv measured upto 24 hrs by LC-MS/MS analysis; format: ADME, organism-based; conditions: in vivo, read-out: Vdss
[12] = Tmax in BALB/c mouse at 10 mg/kg, po measured upto 24 hrs by LC-MS/MS analysis; format: ADME, organism-based; conditions: in vivo
[13] = Cmax in BALB/c mouse at 10 mg/kg, po measured upto 24 hrs by LC-MS/MS analysis; format: ADME, organism-based; conditions: in vivo
[14] = Drug metabolism in BALB/c mouse blood after 24 hrs; format: ADME, tissue-based
[15] = AUC(0 to 24 hrs) in BALB/c mouse at 10 mg/kg, po measured upto 24 hrs by LC-MS/MS analysis; format: ADME, organism-based; conditions: in vivo
[16] = Oral bioavailability in BALB/c mouse at 10 mg/kg measured upto 24 hrs by LC-MS/MS analysis; format: ADME, organism-based; conditions: in vivo
[17] = Biodistribution in MATP knocked out human HCT-116 cells xenografted in BALB/c mouse assessed as fluorescence intensity in tumor at 10 mg/kg, po measured after 24 hrs; format: ADME, organism-based; conditions: in vivo
[18] = Biodistribution in MATP knocked out human HCT-116 cells xenografted in BALB/c mouse assessed as fluorescence intensity in skin at 10 mg/kg, po measured after 24 hrs; format: ADME, organism-based; conditions: in vivo
[19] = Biodistribution in MATP knocked out human HCT-116 cells xenografted in BALB/c mouse assessed as fluorescence intensity in liver at 10 mg/kg, po measured after 24 hrs; format: ADME, organism-based; conditions: in vivo
[20] = Biodistribution in MATP knocked out human HCT-116 cells xenografted in BALB/c mouse assessed as fluorescence intensity in lung at 10 mg/kg, po measured after 24 hrs; format: ADME, organism-based; conditions: in vivo
[21] = Biodistribution in […] knocked out human HCT-116 cells xenografted in BALB/c mouse assessed as fluorescence intensity in kidney at 10 mg/kg, po measured after 24 hrs; format: ADME, organism-based; conditions: in vivo
[22] = test system: HCT-116; experiment: Antitumor activity against […] knocked out human HCT-116 cells xenografted in BALB/c mouse assessed as tumor growth inhibition at 50 mg/kg, po administered once a day for 6 hrs and measured after 3 weeks; format: functional; conditions: HCT-116, 504 h, read-out: TGI
[23] = test system: HCT-116; experiment: Antitumor activity against […] knocked out human HCT-116 cells xenografted in BALB/c mouse assessed as tumor growth inhibition at 100 mg/kg, po administered once a day for 6 hrs and measured after 3 weeks; format: functional; conditions: HCT-116, 504 h, read-out: TGI
[24] = test system: HCT-116; experiment: Antitumor activity against […] knocked out human HCT-116 cells xenografted in BALB/c mouse assessed as tumor regression at 10 mg/kg, po administered once a day followed by 4 mins sonication post 6 hrs of compound administration and measured for 3 weeks; format: functional
[25] = test system: HCT-116; experiment: Antitumor activity against […] knocked out human HCT-116 cells xenografted in BALB/c mouse assessed as reduction in tumor weight at 10 mg/kg, po administered once a day followed by 4 mins sonication post 6 hrs of compound administration and measured for 3 weeks; format: functional, organism-based
[26] = Toxicity in BALB/c mouse xenografted with human HCT-116 cells assessed as liver damage at 10 mg/kg, po by H and E staining based assay; format: organism-based; conditions: in vivo
[27] = Toxicity in BALB/c mouse xenografted with human HCT-116 cells assessed as heart damage at 10 mg/kg, po by H and E staining based assay; format: organism-based; conditions: in vivo
[28] = Toxicity in BALB/c mouse xenografted with human HCT-116 cells assessed as spleen damage at 10 mg/kg, po by H and E staining based assay; format: organism-based; conditions: in vivo
[29] = Toxicity in BALB/c mouse xenografted with human HCT-116 cells assessed as liver tissue rupture at 50 mg/kg, po by H and E staining based assay; format: organism-based; conditions: in vivo
[30] = Toxicity in BALB/c mouse xenografted with human HCT-116 cells assessed as change in liver cell nucleus shape at 100 mg/kg, po by H and E staining based assay; format: organism-based; conditions: in vivo
[31] = Toxicity in BALB/c mouse xenografted with human HCT-116 cells assessed as change in liver cell nucleus size at 100 mg/kg, po by H and E staining based assay; format: organism-based; conditions: in vivo
[32] = Toxicity in BALB/c mouse xenografted with human HCT-116 cells assessed as kidney damage at 100 mg/kg, po by H and E staining based assay; format: organism-based; conditions: in vivo
[33] = Intrinsic clearance in human liver microsomes; format: ADME, Microsome; conditions: read-out: CLH
[34] = target: Cytochrome P450 2C9 (Homo sapiens, UniProt P11712); experiment: Inhibition of CYP2C9 (unknown origin); format: ADME
Sequence of Cytochrome P450 2C9 (P11712 whole entry): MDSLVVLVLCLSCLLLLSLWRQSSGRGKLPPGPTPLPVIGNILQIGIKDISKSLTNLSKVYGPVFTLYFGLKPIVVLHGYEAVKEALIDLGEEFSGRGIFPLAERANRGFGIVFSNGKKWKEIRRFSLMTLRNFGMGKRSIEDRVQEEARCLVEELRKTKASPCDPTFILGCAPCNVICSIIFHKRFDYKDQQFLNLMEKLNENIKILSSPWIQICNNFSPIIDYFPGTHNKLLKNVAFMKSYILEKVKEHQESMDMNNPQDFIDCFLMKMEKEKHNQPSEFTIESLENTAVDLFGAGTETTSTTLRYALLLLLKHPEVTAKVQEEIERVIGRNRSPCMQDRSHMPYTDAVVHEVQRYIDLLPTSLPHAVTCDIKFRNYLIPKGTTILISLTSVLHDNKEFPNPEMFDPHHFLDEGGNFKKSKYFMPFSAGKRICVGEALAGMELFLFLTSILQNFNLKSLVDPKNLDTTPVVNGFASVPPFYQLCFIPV

[35] = Inhibition of uridine glucuronyl transferase (unknown origin); set-up: species or system Homo sapiens
[36] = target: Voltage-gated inwardly rectifying potassium channel KCNH2 (Homo sapiens, UniProt Q12809); experiment: Inhibition of hERG by plate based patch clamp method; format: toxicity
Sequence of Voltage-gated inwardly rectifying potassium channel KCNH2 (Q12809 whole entry): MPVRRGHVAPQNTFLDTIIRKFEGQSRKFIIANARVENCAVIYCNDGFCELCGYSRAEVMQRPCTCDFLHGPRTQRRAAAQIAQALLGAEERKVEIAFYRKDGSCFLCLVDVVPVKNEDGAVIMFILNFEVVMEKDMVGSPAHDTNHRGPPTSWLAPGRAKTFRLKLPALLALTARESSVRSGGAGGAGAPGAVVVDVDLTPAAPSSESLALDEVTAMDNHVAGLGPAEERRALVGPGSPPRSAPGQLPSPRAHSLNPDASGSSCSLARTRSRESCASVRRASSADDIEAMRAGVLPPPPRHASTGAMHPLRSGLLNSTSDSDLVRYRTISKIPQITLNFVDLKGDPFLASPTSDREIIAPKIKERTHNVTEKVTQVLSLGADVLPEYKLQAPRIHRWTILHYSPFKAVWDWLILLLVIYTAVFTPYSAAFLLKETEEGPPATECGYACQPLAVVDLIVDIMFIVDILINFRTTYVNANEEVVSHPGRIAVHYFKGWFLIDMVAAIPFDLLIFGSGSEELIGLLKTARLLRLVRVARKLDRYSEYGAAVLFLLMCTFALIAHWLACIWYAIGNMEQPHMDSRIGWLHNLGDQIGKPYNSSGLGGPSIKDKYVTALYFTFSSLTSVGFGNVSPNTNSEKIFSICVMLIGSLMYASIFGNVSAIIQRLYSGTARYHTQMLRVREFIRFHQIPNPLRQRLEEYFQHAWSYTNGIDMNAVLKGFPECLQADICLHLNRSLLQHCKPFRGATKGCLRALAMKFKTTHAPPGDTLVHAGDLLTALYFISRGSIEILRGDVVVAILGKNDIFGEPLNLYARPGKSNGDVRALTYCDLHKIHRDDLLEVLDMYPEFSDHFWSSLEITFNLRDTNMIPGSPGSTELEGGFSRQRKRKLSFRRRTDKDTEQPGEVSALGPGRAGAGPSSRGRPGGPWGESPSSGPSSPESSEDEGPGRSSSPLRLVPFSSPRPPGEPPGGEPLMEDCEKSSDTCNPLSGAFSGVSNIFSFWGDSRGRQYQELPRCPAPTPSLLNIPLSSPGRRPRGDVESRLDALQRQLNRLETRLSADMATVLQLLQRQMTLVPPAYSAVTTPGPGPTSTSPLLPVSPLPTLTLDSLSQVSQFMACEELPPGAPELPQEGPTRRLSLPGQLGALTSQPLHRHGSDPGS

For CCOc1ncc2cc(-c3ccc4c(c3)N3CCCC3CO4)c(=O)n(-c3ccc(OC(F)F)cc3)c2n1 (stereo unspecified), the inhibition [1] was “Active”, the Activity [2] was “inactive” and the Activity [3] was “inactive”. It also gave an EC50 [4] of 360 nM, an Emax [5] of 76% and an Activity [6] of 13%. For the same compound, the Activity [7] was “Active”, the IC50 [8] was 42 nM and the half-life [9] was 1.6 h. For the same compound, the AUC at 24 h [10] was 9710 ng·h/mL, the Vd [11] was 3.47 L/kg and the Tmax [12] was 1 h. For the same compound, the Cmax [13] was 1380 ng/mL, the Drug metabolism [14] was “Metabolite_Detected” and the AUC [15] was 9714 ng·h/mL. For the same compound, the F [16] was 77%, the Drug uptake [17] was “Active” and the Drug uptake [18] was “Active”. For the same compound, the Drug uptake [19] was “Active”, the Drug uptake [20] was “Active” and the Drug uptake [21] was “Not Active”. It also gave an inhibition in vivo at 50 mg/kg [22] of 93.5%, an inhibition in vivo at 100 mg/kg [23] of 96.5% and an Activity [24] of 31%. The Activity [25] was “Active”, the Activity [26] was “Non-Toxic” and the Activity [27] was “Non-Toxic”. The Activity [28] was “Non-Toxic”, the Activity [29] was “Toxic” and the Activity [30] was “Toxic”. The Activity [31] was “Toxic”, the Activity [32] was “Non-Toxic” and the CLint scaled [33] was 9.6 mL/min/kg. For the same compound, the IC50 [34] was 31000 nM, the IC50 [35] was 800 nM and the IC50 [36] was > 50000 nM.
